From publication PMC10507043, “Metabolite interactions in the bacterial Calvin cycle and implications for flux regulation” (Communications Biology, 2023)

Columns and labels:
Type in all cases: biochemical
[1] = molecular target: T1, syn-TKT (Synechocystis sp. PCC 6803, UniProt P73282); assay: alcohol dehydrogenase-coupled NADH assay, inhibition; conditions: 1 mM AMP, glycylglycine pH 7.5, thiamine pyrophosphate, Mg2+
T1 construct: gene tktA; recombinant from genomic DNA, pET-28a(+), E. coli BL21, HisTrap purified
T1 sequence (P73282 1-670): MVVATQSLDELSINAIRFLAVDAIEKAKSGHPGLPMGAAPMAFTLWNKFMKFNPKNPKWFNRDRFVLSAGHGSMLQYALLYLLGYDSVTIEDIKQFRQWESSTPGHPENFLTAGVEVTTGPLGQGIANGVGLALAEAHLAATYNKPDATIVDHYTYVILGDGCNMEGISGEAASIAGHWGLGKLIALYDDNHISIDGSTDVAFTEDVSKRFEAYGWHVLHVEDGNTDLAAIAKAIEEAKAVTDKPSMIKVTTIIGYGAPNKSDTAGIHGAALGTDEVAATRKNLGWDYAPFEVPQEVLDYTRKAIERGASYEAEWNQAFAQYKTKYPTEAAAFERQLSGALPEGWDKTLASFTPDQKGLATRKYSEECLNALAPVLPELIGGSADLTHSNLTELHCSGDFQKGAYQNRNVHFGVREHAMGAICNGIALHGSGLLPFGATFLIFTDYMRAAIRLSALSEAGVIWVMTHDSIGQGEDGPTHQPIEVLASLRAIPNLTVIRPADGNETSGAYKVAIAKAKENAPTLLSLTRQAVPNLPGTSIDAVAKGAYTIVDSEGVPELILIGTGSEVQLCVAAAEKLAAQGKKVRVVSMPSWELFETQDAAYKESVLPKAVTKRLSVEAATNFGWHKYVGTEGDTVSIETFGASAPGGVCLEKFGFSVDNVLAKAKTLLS

[2] = molecular target: T1, syn-TKT; assay: alcohol dehydrogenase-coupled NADH consumption at […] nm; conditions: 100 mM L-erythrulose, 2 mM thiamine pyrophosphate, 5 mM MgCl2, 100 mM glycylglycine pH 7.5; no added metabolite
[3] = molecular target: T2, cn-TKT (Cupriavidus necator, UniProt P21726); assay: as above; conditions: 100 mM L-erythrulose, 2 mM thiamine pyrophosphate, 5 mM MgCl2, 100 mM glycylglycine pH 7.5; no added metabolite
T2 construct: gene cbbTP; recombinant from genomic DNA, pET-28a(+), E. coli BL21, HisTrap purified
T2 sequence (P21726 1-670): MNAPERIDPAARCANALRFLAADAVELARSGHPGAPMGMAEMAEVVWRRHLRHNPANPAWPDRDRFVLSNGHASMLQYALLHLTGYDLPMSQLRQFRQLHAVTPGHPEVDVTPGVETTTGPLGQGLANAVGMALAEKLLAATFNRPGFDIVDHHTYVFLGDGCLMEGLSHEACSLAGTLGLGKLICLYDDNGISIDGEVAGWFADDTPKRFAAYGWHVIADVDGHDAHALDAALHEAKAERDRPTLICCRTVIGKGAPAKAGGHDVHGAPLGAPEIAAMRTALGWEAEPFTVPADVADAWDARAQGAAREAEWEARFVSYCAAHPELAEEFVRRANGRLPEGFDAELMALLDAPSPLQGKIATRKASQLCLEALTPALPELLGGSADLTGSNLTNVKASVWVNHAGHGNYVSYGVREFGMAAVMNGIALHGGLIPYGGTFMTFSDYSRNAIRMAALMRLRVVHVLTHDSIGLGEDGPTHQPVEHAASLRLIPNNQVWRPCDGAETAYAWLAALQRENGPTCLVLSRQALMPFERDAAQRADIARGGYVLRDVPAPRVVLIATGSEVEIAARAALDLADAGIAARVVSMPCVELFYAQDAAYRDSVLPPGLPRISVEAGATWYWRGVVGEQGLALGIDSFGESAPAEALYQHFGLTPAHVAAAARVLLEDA

[4] = molecular target: T3, syn-F/SBPase (Synechocystis sp. PCC 6803, UniProt P73922, R194H); assay: Malachite Green phosphate release, activation; conditions: substrate fructose-1,6-bisphosphate; AMP-insensitive variant
T3 construct: gene slr2094; recombinant, codon-optimised, pET-28a(+), E. coli BL21, HisTrap purified; homotetramer
T3 sequence (P73922 whole entry R194H): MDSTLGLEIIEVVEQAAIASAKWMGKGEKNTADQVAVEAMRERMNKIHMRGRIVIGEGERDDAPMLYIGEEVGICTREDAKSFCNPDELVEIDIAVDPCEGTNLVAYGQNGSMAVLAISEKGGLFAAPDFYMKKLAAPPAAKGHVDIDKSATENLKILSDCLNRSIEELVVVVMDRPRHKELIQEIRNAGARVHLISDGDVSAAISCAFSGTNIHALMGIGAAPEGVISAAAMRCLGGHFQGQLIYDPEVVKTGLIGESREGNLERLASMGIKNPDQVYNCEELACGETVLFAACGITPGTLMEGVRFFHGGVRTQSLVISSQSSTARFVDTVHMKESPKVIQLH

[5] = molecular target: T3, syn-F/SBPase; assay: Malachite Green phosphate release, inhibition; conditions: substrate fructose-1,6-bisphosphate; AMP-insensitive variant
[6] = molecular target: T2, cn-TKT; assay: alcohol dehydrogenase-coupled NADH assay, inhibition; conditions: 1 mM dihydroxyacetone phosphate, glycylglycine pH 7.5, thiamine pyrophosphate, Mg2+
[7] = molecular target: T4, cn-F/SBPase (Cupriavidus necator, UniProt P19912); assay: Malachite Green phosphate release, Hill fit; conditions: 50 mM Tris-HCl, 15 mM MgCl2, 10 mM DTT, 30 °C; no added metabolite
T4 construct: gene fbp3; recombinant, codon-optimised, pET-28a(+), E. coli BL21, HisTrap purified
T4 sequence (P19912 1-364): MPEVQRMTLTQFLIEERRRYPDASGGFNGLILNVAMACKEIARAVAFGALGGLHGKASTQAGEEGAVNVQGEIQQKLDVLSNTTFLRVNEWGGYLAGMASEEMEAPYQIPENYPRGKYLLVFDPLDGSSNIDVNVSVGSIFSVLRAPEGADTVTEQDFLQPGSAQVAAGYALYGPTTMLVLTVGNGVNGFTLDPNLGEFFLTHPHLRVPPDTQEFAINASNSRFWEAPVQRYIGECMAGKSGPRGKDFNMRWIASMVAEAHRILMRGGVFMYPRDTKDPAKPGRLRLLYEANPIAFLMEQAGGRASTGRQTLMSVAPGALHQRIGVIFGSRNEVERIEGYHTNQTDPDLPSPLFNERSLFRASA

[8] = molecular target: T5, syn-F/SBPase (Synechocystis sp. PCC 6803, UniProt P73922); assay: Malachite Green phosphate release, Hill fit; conditions: 50 mM Tris-HCl, 15 mM MgCl2, 10 mM DTT, 30 °C; no added metabolite
T5 construct: gene slr2094; recombinant, codon-optimised, pET-28a(+), E. coli BL21, HisTrap purified; homotetramer
T5 sequence (P73922 1-345): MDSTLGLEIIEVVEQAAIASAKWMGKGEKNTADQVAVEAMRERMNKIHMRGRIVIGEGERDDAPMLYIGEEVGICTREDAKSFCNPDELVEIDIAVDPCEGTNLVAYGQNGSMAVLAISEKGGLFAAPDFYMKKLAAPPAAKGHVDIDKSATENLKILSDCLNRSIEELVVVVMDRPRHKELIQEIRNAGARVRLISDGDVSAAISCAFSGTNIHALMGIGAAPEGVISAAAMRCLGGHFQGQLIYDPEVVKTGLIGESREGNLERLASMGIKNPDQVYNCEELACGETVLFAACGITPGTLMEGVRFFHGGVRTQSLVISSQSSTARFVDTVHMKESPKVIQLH

## Nc1ncnc2c1ncn2[C@@H]1O[C@H](COP(=O)(O)O)[C@@H](O)[C@H]1O [AMP]
[1]
  alcohol dehydrogenase-coupled NADH assay, inhibition: AMP and dihydroxyacetone phosphate, which specifically reduced the activity of syn-TKT and cn-TKT, respectively

## O=P(O)(O)OC[C@H]1OC(O)[C@H](O)[C@@H]1O (stereo partly drawn) [D-ribose-5-phosphate]
[2]
  KM: conversion of D-ribose-5-phosphate and L-erythrulose to sedoheptulose-7-phosphate and glycolaldehyde was measured
[3]
  KM: conversion of D-ribose-5-phosphate and L-erythrulose to sedoheptulose-7-phosphate and glycolaldehyde was measured

## O=C[C@H](O)COP(=O)(O)O [GAP, glyceraldehyde-3-phosphate]
[4]
  Malachite Green phosphate release, activation: This mutant lost AMP sensitivity but retained sensitivity to both GAP activation and NADPH inhibition

## NC(=O)C1=CN([C@@H]2O[C@H](COP(=O)(O)OP(=O)(O)OC[C@H]3O[C@@H](n4cnc5c(N)ncnc54)[C@H](OP(=O)(O)O)[C@@H]3O)[C@@H](O)[C@H]2O)C=CC1 [NADPH]
[5]
  Malachite Green phosphate release, inhibition: This mutant lost AMP sensitivity but retained sensitivity to both GAP activation and NADPH inhibition

## O=C(CO)COP(=O)(O)O [dihydroxyacetone phosphate]
[6]
  alcohol dehydrogenase-coupled NADH assay, inhibition: AMP and dihydroxyacetone phosphate, which specifically reduced the activity of syn-TKT and cn-TKT, respectively

## O=P(O)(O)OC[C@H]1OC(O)(COP(=O)(O)O)[C@@H](O)[C@@H]1O (some centres unmarked) [fructose-1,6-bisphosphate]
[7]
  KM: Initial rates of syn-F/SBPase and cn-F/SBPase were measured at different substrate concentrations
[8]
  KM: activity on the substrate fructose-1,6-bisphosphate was screened using Malachite Green (MG) detection
